Measured values from ChEMBL document CHEMBL4184210, “Optimization of novel monobactams with activity against carbapenem-resistant Enterobacteriaceae - Identification of LYS228” (Bioorg Med Chem Lett, 2018).
Converted amounts (≈) assume the structure as drawn. One block for each compound: values may come before it.

What was measured:
[1] = test system: Escherichia coli; test: microbe, parasite or virus in culture
[2] = test system: Escherichia coli; test: microbe, parasite or virus in culture; remark: listed apart in the source
[3] = test system: Escherichia coli; test: microbe, parasite or virus in culture; remark: listed apart in the source
[4] = test system: Escherichia coli; test: microbe, parasite or virus in culture; remark: listed apart in the source
[5] = test system: Escherichia coli; test: microbe, parasite or virus in culture; remark: listed apart in the source
[6] = test system: Escherichia coli; test: microbe, parasite or virus in culture; remark: listed apart in the source
[7] = test system: Escherichia coli; test: microbe, parasite or virus in culture; remark: listed apart in the source
[8] = test system: Escherichia coli; test: microbe, parasite or virus in culture; remark: listed apart in the source
[9] = test system: Escherichia coli; test: microbe, parasite or virus in culture; remark: listed apart in the source
[10] = test system: Escherichia coli; test: microbe, parasite or virus in culture; remark: listed apart in the source
[11] = test system: Escherichia coli; test: microbe, parasite or virus in culture; remark: listed apart in the source
[12] = test system: Escherichia coli; test: microbe, parasite or virus in culture; remark: listed apart in the source
[13] = test system: Escherichia coli; test: microbe, parasite or virus in culture; remark: listed apart in the source
[14] = test system: Escherichia coli; test: microbe, parasite or virus in culture; remark: listed apart in the source
[15] = test system: Escherichia coli; test: microbe, parasite or virus in culture; remark: listed apart in the source
[16] = test system: Escherichia coli; test: microbe, parasite or virus in culture; remark: listed apart in the source
[17] = test system: Escherichia coli; test: microbe, parasite or virus in culture; remark: listed apart in the source
[18] = test system: Escherichia coli; test: microbe, parasite or virus in culture; remark: listed apart in the source
[19] = test system: Escherichia coli; test: microbe, parasite or virus in culture; remark: listed apart in the source
[20] = test system: Escherichia coli; test: microbe, parasite or virus in culture; remark: listed apart in the source
[21] = test system: Escherichia coli; test: microbe, parasite or virus in culture; remark: listed apart in the source
[22] = test system: Escherichia coli; test: Antimicrobial activity against Escherichia coli expressing beta-lactamase KPC-2 by CLSI broth microdilution method; type: functional
[23] = test system: Pseudomonas aeruginosa; test: Antimicrobial activity against Pseudomonas aeruginosa ATCC 27853 by CLSI broth microdilution method; type: functional
[24] = test system: Pseudomonas aeruginosa; test: Antimicrobial activity against Pseudomonas aeruginosa expressing delta-mexB/delta-mexXY/delta-mexCD and delta-ampC mutant by CLSI broth microdilution method; type: functional
[25] = test system: Pseudomonas aeruginosa; test: Antimicrobial activity against Pseudomonas aeruginosa expressing nalB/delta-mexXY/delta-mexCDoprJ/delta-ampC by CLSI broth microdilution method; type: functional
[26] = test system: Pseudomonas aeruginosa; test: Antimicrobial activity against Pseudomonas aeruginosa expressing delta-mexB/mexXY/delta-ampDh2/ delta-ampD by CLSI broth microdilution method; type: functional
[27] = test system: Escherichia coli; test: microbe, parasite or virus in culture; remark: listed apart in the source
[28] = test system: Escherichia coli; test: microbe, parasite or virus in culture; remark: listed apart in the source
[29] = test system: Escherichia coli; test: Antimicrobial activity against Escherichia coli expressing beta-lactamase VEB-1 by CLSI broth microdilution method; type: functional
[30] = test system: Escherichia coli; test: Antimicrobial activity against Escherichia coli expressing beta-lactamase TEM-1 by CLSI broth microdilution method; type: functional
[31] = test system: Escherichia coli; test: Antimicrobial activity against Escherichia coli expressing beta-lactamase NDM-1 by CLSI broth microdilution method; type: functional
[32] = test system: Escherichia coli; test: Antimicrobial activity against Escherichia coli expressing beta-lactamase NDM-5 by CLSI broth microdilution method; type: functional
[33] = test system: Escherichia coli; test: microbe, parasite or virus in culture; remark: listed apart in the source
[34] = test system: Escherichia coli; test: microbe, parasite or virus in culture; remark: listed apart in the source
[35] = test system: Escherichia coli; test: microbe, parasite or virus in culture; remark: listed apart in the source
[36] = test system: Escherichia coli; test: microbe, parasite or virus in culture; remark: listed apart in the source
[37] = test system: Escherichia coli; test: microbe, parasite or virus in culture; remark: listed apart in the source
[38] = test system: Escherichia coli; test: microbe, parasite or virus in culture; remark: listed apart in the source
[39] = test system: Escherichia coli; test: microbe, parasite or virus in culture; remark: listed apart in the source
[40] = test system: Escherichia coli; test: microbe, parasite or virus in culture; remark: listed apart in the source
[41] = test system: Escherichia coli; test: microbe, parasite or virus in culture; remark: listed apart in the source
[42] = test system: Escherichia coli; test: microbe, parasite or virus in culture; remark: listed apart in the source
[43] = test system: Escherichia coli; test: microbe, parasite or virus in culture; remark: listed apart in the source
[44] = test system: Escherichia coli; test: microbe, parasite or virus in culture; remark: listed apart in the source
[45] = test system: Escherichia coli; test: microbe, parasite or virus in culture; remark: listed apart in the source
[46] = test system: Escherichia coli; test: microbe, parasite or virus in culture; remark: listed apart in the source
[47] = test system: Escherichia coli; test: microbe, parasite or virus in culture; remark: listed apart in the source
[48] = test system: Escherichia coli; test: microbe, parasite or virus in culture; remark: listed apart in the source
[49] = test system: Escherichia coli; test: microbe, parasite or virus in culture; remark: listed apart in the source
[50] = Chemical stability in pH 7.4 potassium phosphate buffer assessed as half life for compound hydrolysis at 37 degC by UPLC and mass spectrometry; type: physicochemical

MIC [22]: > 64 µg/mL
MIC [31]: > 64 µg/mL
half-life [50]: 3.5 h
MIC [1]: > 64 µg/mL
MIC [2]: > 64 µg/mL
MIC [27]: > 64 µg/mL
MIC [8]: > 64 µg/mL
MIC [28]: > 64 µg/mL
SMILES: CC(C)(O/N=C(\C(=O)N[C@@H]1C(=O)N(S(=O)(=O)O)[C@@H]1Cn1ccc(N)n1)c1csc(N)n1)C(=O)O (stereo in doubt)

MIC [22]: 16 µg/mL (≈ 31.8 µM)
MIC [31]: 1 µg/mL (≈ 1.99 µM)
half-life [50]: 113 h
MIC [1]: 1 µg/mL (≈ 1.99 µM)
MIC [2]: 1 µg/mL (≈ 1.99 µM)
MIC [27]: 16 µg/mL (≈ 31.8 µM)
MIC [8]: 32 µg/mL (≈ 63.7 µM)
MIC [28]: 2 µg/mL (≈ 3.98 µM)
SMILES: CC(C)(O/N=C(\C(=O)N[C@@H]1C(=O)N(S(=O)(=O)O)[C@@H]1Cn1cnnc1)c1csc(N)n1)C(=O)O (stereo in doubt)

MIC [22]: 1 µg/mL (≈ 2.21 µM)
MIC [31]: 0.125 µg/mL (≈ 0.276 µM)
half-life [50]: 990 h
MIC [1]: 0.125 µg/mL (≈ 0.276 µM)
MIC [2]: 0.25 µg/mL (≈ 0.551 µM)
MIC [27]: 32 µg/mL (≈ 70.6 µM)
MIC [28]: 4 µg/mL (≈ 8.82 µM)
MIC [18]: 0.06 µg/mL (≈ 0.132 µM)
SMILES: CC(C)(O/N=C(/C(=O)N[C@@H]1C(=O)N(S(=O)(=O)O)[C@@H]1CF)c1csc(N)n1)C(=O)O (stereo in doubt)

Second part, the compound before the results:

SMILES: CO/N=C(\C(=O)N[C@@H]1C(=O)N2C(C(=O)[O-])=C(C[N+]3(C)CCCC3)CS[C@H]12)c1csc(N)n1
MIC [1]: ≤ 0.03 µg/mL
MIC [2]: 16 µg/mL (≈ 33.3 µM)
MIC [3]: 1 µg/mL (≈ 2.08 µM)
MIC [4]: 4 µg/mL (≈ 8.32 µM)
MIC [5]: 4 µg/mL (≈ 8.32 µM)
MIC [6]: 0.125 µg/mL (≈ 0.26 µM)
MIC [7]: 1 µg/mL (≈ 2.08 µM)
MIC [8]: 1 µg/mL (≈ 2.08 µM)
MIC [9]: 0.25 µg/mL (≈ 0.52 µM)
MIC [10]: 0.25 µg/mL (≈ 0.52 µM)
MIC [11]: 1 µg/mL (≈ 2.08 µM)
MIC [12]: 4 µg/mL (≈ 8.32 µM)
MIC [13]: 16 µg/mL (≈ 33.3 µM)
MIC [14]: 0.125 µg/mL (≈ 0.26 µM)
MIC [15]: 0.125 µg/mL (≈ 0.26 µM)
MIC [16]: 0.125 µg/mL (≈ 0.26 µM)
MIC [17]: 0.25 µg/mL (≈ 0.52 µM)
MIC [18]: 0.125 µg/mL (≈ 0.26 µM)
MIC [19]: 0.25 µg/mL (≈ 0.52 µM)
MIC [20]: 0.125 µg/mL (≈ 0.26 µM)
MIC [21]: 1 µg/mL (≈ 2.08 µM)

SMILES: CC(C)(O/N=C(\C(=O)N[C@@H]1C(=O)N(S(=O)(=O)O)[C@@H]1Cn1cncn1)c1nsc(N)n1)C(=O)O
MIC [22]: 2 µg/mL (≈ 3.97 µM)
MIC [23]: 32 µg/mL (≈ 63.6 µM)
MIC [24]: 1 µg/mL (≈ 1.99 µM)
MIC [25]: > 64 µg/mL
MIC [26]: > 64 µg/mL
MIC [1]: 1 µg/mL (≈ 1.99 µM)
MIC [2]: 1 µg/mL (≈ 1.99 µM)
MIC [27]: 8 µg/mL (≈ 15.9 µM)
MIC [8]: 8 µg/mL (≈ 15.9 µM)
MIC [28]: 32 µg/mL (≈ 63.6 µM)
MIC [14]: 16 µg/mL (≈ 31.8 µM)

SMILES: CC1(C)[C@H](NC(=O)/C(=N\OCc2cc(=O)c(O)cn2O)c2csc(N)n2)C(=O)N1OS(=O)(=O)O (stereo in doubt)
MIC [22]: 0.5 µg/mL (≈ 0.964 µM)
MIC [29]: 16 µg/mL (≈ 30.9 µM)
MIC [30]: 0.5 µg/mL (≈ 0.964 µM)
MIC [31]: 0.25 µg/mL (≈ 0.482 µM)
MIC [32]: 0.125 µg/mL (≈ 0.241 µM)
MIC [1]: 0.25 µg/mL (≈ 0.482 µM)
MIC [33]: 0.25 µg/mL (≈ 0.482 µM)
MIC [2]: 1 µg/mL (≈ 1.93 µM)
MIC [3]: 0.25 µg/mL (≈ 0.482 µM)
MIC [34]: 0.25 µg/mL (≈ 0.482 µM)
MIC [35]: 0.5 µg/mL (≈ 0.964 µM)
MIC [4]: 32 µg/mL (≈ 61.7 µM)
MIC [36]: 8 µg/mL (≈ 15.4 µM)
MIC [37]: 0.25 µg/mL (≈ 0.482 µM)
MIC [5]: 16 µg/mL (≈ 30.9 µM)
MIC [38]: > 64 µg/mL
MIC [39]: 0.5 µg/mL (≈ 0.964 µM)
MIC [27]: > 32 µg/mL
MIC [6]: 0.5 µg/mL (≈ 0.964 µM)
MIC [7]: 8 µg/mL (≈ 15.4 µM)
MIC [40]: 2 µg/mL (≈ 3.86 µM)
MIC [8]: > 64 µg/mL
MIC [9]: 16 µg/mL (≈ 30.9 µM)
MIC [10]: 16 µg/mL (≈ 30.9 µM)
MIC [41]: 2 µg/mL (≈ 3.86 µM)
MIC [11]: 8 µg/mL (≈ 15.4 µM)
MIC [42]: ≤ 0.06 µg/mL
MIC [43]: 0.25 µg/mL (≈ 0.482 µM)
MIC [12]: ≤ 0.06 µg/mL
MIC [13]: ≤ 0.06 µg/mL
MIC [28]: 0.5 µg/mL (≈ 0.964 µM)
MIC [44]: 0.25 µg/mL (≈ 0.482 µM)
MIC [14]: 0.25 µg/mL (≈ 0.482 µM)
MIC [45]: 2 µg/mL (≈ 3.86 µM)
MIC [15]: 0.5 µg/mL (≈ 0.964 µM)
MIC [16]: 0.125 µg/mL (≈ 0.241 µM)
MIC [46]: 16 µg/mL (≈ 30.9 µM)
MIC [17]: 0.06 µg/mL (≈ 0.116 µM)
MIC [47]: ≤ 0.03 µg/mL
MIC [18]: 0.125 µg/mL (≈ 0.241 µM)
MIC [48]: 0.06 µg/mL (≈ 0.116 µM)
MIC [49]: 2 µg/mL (≈ 3.86 µM)
MIC [19]: 8 µg/mL (≈ 15.4 µM)
MIC [20]: 0.125 µg/mL (≈ 0.241 µM)
MIC [21]: 2 µg/mL (≈ 3.86 µM)
